Laboratory results taken from ChEMBL document CHEMBL3885881, “DrugMatrix”.

Species: Rattus norvegicus
Test: DrugMatrix - Regimen: Daily Repeat
Assay type: toxicity, organism-based, Sprague-Dawley
Set-up: regimen Daily Repeat, gender Male, age 6-8 weeks
Settings: in vivo, po, route oral GAVAGE, […]; for ABSOLUTE BASOPHIL / ABSOLUTE EOSINOPHIL / ABSOLUTE LYMPHOCYTE / ABSOLUTE MONOCYTE / ABSOLUTE SEGMENTED NEUTROPHIL / BASOPHIL / EOSINOPHIL / ERYTHROCYTE COUNT / HEMATOCRIT / HEMOGLOBIN / LEUKOCYTE COUNT / LYMPHOCYTE / MEAN CORPUSCULAR HEMOGLOBIN / MEAN CORPUSCULAR HEMOGLOBIN CONCENTRATION / MEAN CORPUSCULAR VOLUME / MONOCYTE / NEUTROPHIL / NUCLEATED RED BLOOD CELLS / PLATELET COUNT: tissue Blood; for ALANINE AMINOTRANSFERASE / ALBUMIN / ALKALINE PHOSPHATASE / ASPARTATE AMINOTRANSFERASE / BLOOD UREA NITROGEN / CARBON DIOXIDE / CHLORIDE / CHOLESTEROL / CREATINE PHOSPHOKINASE / CREATININE / GLUCOSE / LACTATE DEHYDROGENASE / LIPASE / PHOSPHORUS / POTASSIUM / SODIUM / TOTAL BILIRUBIN / TOTAL PROTEIN / URIC ACID: tissue Plasma
[1] = 1 mg/kg, 120 h, dose level Low, time 5 day
[2] = 14 mg/kg, 72 h, dose level High, time 3 day
[3] = 14 mg/kg, 120 h, dose level High, time 5 day

CCOC(=O)C1=C(C)NC(C)=C(C(=O)OCC)C1c1ccccc1/C=C/C(=O)OC(C)(C)C [LACIDIPINE]
ABSOLUTE BASOPHIL [1]: 0 CELLS/uL
ABSOLUTE EOSINOPHIL [1]: 0 CELLS/uL
ABSOLUTE LYMPHOCYTE [1]: 13674 CELLS/uL
ABSOLUTE MONOCYTE [1]: 253 CELLS/uL
ABSOLUTE SEGMENTED NEUTROPHIL [1]: 1206.33 CELLS/uL
BASOPHIL [1]: 0%
EOSINOPHIL [1]: 0%
ERYTHROCYTE COUNT [1]: 6.05 x10E6/uL
HEMATOCRIT [1]: 38.43%
HEMOGLOBIN [1]: 15 G/DL
LEUKOCYTE COUNT [1]: 15.13 x10E3/uL
LYMPHOCYTE [1]: 90.33%
MEAN CORPUSCULAR HEMOGLOBIN [1]: 24.8 pg
MEAN CORPUSCULAR HEMOGLOBIN CONCENTRATION [1]: 39.07 G/DL
MEAN CORPUSCULAR VOLUME [1]: 63.47 fL
MONOCYTE [1]: 1.67%
NEUTROPHIL [1]: 8%
NUCLEATED RED BLOOD CELLS [1]: 0.33 /100WBC
PLATELET COUNT [1]: 1182 x10E3/uL
ALANINE AMINOTRANSFERASE [1]: 60.33 u/L
ALBUMIN [1]: 4.13 G/DL
ALKALINE PHOSPHATASE [1]: 378.33 u/L
ASPARTATE AMINOTRANSFERASE [1]: 70.67 u/L
BLOOD UREA NITROGEN [1]: 12.67 mg/dL
CARBON DIOXIDE [1]: 30 mmol/L
CHLORIDE [1]: 99.67 MEQ/L
CHOLESTEROL [1]: 69 mg/dL
CREATINE PHOSPHOKINASE [1]: 271.67 u/L
CREATININE [1]: 0.17 mg/dL
GLUCOSE [1]: 166.33 mg/dL
LACTATE DEHYDROGENASE [1]: 125.67 u/L
LIPASE [1]: 10 u/L
PHOSPHORUS [1]: 10.93 mg/dL
POTASSIUM [1]: 6.75 MEQ/L
SODIUM [1]: 141.97 MEQ/L
TOTAL BILIRUBIN [1]: 0.17 mg/dL
TOTAL PROTEIN [1]: 5.83 G/DL
URIC ACID [1]: 1.9 mg/dL
ABSOLUTE BASOPHIL [2]: 0 CELLS/uL
ABSOLUTE EOSINOPHIL [2]: 0 CELLS/uL
ABSOLUTE LYMPHOCYTE [2]: 6598.33 CELLS/uL
ABSOLUTE MONOCYTE [2]: 95.33 CELLS/uL
ABSOLUTE SEGMENTED NEUTROPHIL [2]: 673 CELLS/uL
BASOPHIL [2]: 0%
EOSINOPHIL [2]: 0%
ERYTHROCYTE COUNT [2]: 6.39 x10E6/uL
HEMATOCRIT [2]: 38.67%
HEMOGLOBIN [2]: 15.2 G/DL
LEUKOCYTE COUNT [2]: 7.37 x10E3/uL
LYMPHOCYTE [2]: 89.67%
MEAN CORPUSCULAR HEMOGLOBIN [2]: 23.8 pg
MEAN CORPUSCULAR HEMOGLOBIN CONCENTRATION [2]: 39.33 G/DL
MEAN CORPUSCULAR VOLUME [2]: 60.53 fL
MONOCYTE [2]: 1.33%
NEUTROPHIL [2]: 9%
NUCLEATED RED BLOOD CELLS [2]: 0.33 /100WBC
PLATELET COUNT [2]: 1020.33 x10E3/uL
ALANINE AMINOTRANSFERASE [2]: 81.67 u/L
ALBUMIN [2]: 4 G/DL
ALKALINE PHOSPHATASE [2]: 315.33 u/L
ASPARTATE AMINOTRANSFERASE [2]: 94 u/L
BLOOD UREA NITROGEN [2]: 9.33 mg/dL
CARBON DIOXIDE [2]: 25 mmol/L
CHLORIDE [2]: 94.33 MEQ/L
CHOLESTEROL [2]: 62.33 mg/dL
CREATINE PHOSPHOKINASE [2]: 287 u/L
CREATININE [2]: 0.4 mg/dL
GLUCOSE [2]: 140 mg/dL
LACTATE DEHYDROGENASE [2]: 223.33 u/L
LIPASE [2]: 9.67 u/L
PHOSPHORUS [2]: 8.63 mg/dL
POTASSIUM [2]: 4.28 MEQ/L
SODIUM [2]: 137.47 MEQ/L
TOTAL BILIRUBIN [2]: 0.2 mg/dL
TOTAL PROTEIN [2]: 5.47 G/DL
URIC ACID [2]: 0.53 mg/dL
ABSOLUTE BASOPHIL [3]: 0 CELLS/uL
ABSOLUTE EOSINOPHIL [3]: 59.67 CELLS/uL
ABSOLUTE LYMPHOCYTE [3]: 14336 CELLS/uL
ABSOLUTE MONOCYTE [3]: 190.33 CELLS/uL
ABSOLUTE SEGMENTED NEUTROPHIL [3]: 2280.67 CELLS/uL
BASOPHIL [3]: 0%
EOSINOPHIL [3]: 0.33%
ERYTHROCYTE COUNT [3]: 6.95 x10E6/uL
HEMATOCRIT [3]: 41.6%
HEMOGLOBIN [3]: 16.07 G/DL
LEUKOCYTE COUNT [3]: 16.87 x10E3/uL
LYMPHOCYTE [3]: 85.33%
MEAN CORPUSCULAR HEMOGLOBIN [3]: 23.17 pg
MEAN CORPUSCULAR HEMOGLOBIN CONCENTRATION [3]: 38.67 G/DL
MEAN CORPUSCULAR VOLUME [3]: 59.9 fL
MONOCYTE [3]: 1%
NEUTROPHIL [3]: 13.33%
NUCLEATED RED BLOOD CELLS [3]: 0 /100WBC
PLATELET COUNT [3]: 1126 x10E3/uL
ALANINE AMINOTRANSFERASE [3]: 90.33 u/L
ALBUMIN [3]: 4.47 G/DL
ALKALINE PHOSPHATASE [3]: 262.33 u/L
ASPARTATE AMINOTRANSFERASE [3]: 95.67 u/L
BLOOD UREA NITROGEN [3]: 10.33 mg/dL
CARBON DIOXIDE [3]: 25.33 mmol/L
CHLORIDE [3]: 97.67 MEQ/L
CHOLESTEROL [3]: 58.67 mg/dL
CREATINE PHOSPHOKINASE [3]: 234.67 u/L
CREATININE [3]: 0.14 mg/dL
GLUCOSE [3]: 154.67 mg/dL
LACTATE DEHYDROGENASE [3]: 217 u/L
LIPASE [3]: 9.33 u/L
PHOSPHORUS [3]: 11.23 mg/dL
POTASSIUM [3]: 4.62 MEQ/L
SODIUM [3]: 138.03 MEQ/L
TOTAL BILIRUBIN [3]: 0.33 mg/dL
TOTAL PROTEIN [3]: 5.93 G/DL
URIC ACID [3]: 1.6 mg/dL
